Experimental findings from patent publication US5025036A, “Catechol carboxylic acids” (Hoffmann-La Roche Inc., priority 1989, dated 1991) are described below.

pIC50: −log10 of the molar value. Counter-ions that a name gives are not always drawn.

The test system of assay [1] is Carrageenan pleurisy. The assay is described as follows: Carrageenan Pleurisy Test (In Vivo). Also noted: species or system male Lewis rats. As to conditions: Rattus norvegicus, po; at 100 mg/kg p.o; read-out: Rat Carrageenan Pleurisy % Inhib. of Exudate Volume. How it is done:
The animals utilized in these studies were male Lewis rats (Charles River Breeding Laboratories) weighing between 230-250 g. […] At 5 or 24 hours after CG injection, the rats were killed by decapitation, exsanguinated, and the pleural cavity exposed by cutting the ribs on both sides of the sternum. The exudate fluid was removed from the pleural cavity with disposable plastic pipettes and its volume quantitated. The pleural cavity was then washed once with phosphate buffered saline containing fetal bovine serum (1:1) and the washings combined with the exudate. The total number of cells in the pleural cavity was quantitated using a Coulter Counter (Model ZM) adjusted to exclude any contaminating RBC. (Published in "Plant Flavonoids in Biology & Medicine: Biochemical, Pharmacological and Structure-Activity Relationships" p. 231-242 (1986) Alan R. Liss, Inc.)

Assay [2] concerns ear edema. The experiment in a line: Mouse Ear Edema Test (In Vivo), arachidonic acid. More on the design: species or system CD-1 male mice. As to conditions: topical, 1 h, at 1 mg topically. The source says: Invest. Dermatol. 80:48 (1983) and Hames, Opas and Bonney, "Arachidonic Acid Metabolites in Mouse Ear Edema" Advances in Inflammation Research, 11:57 (1986). […] CD-1 male mice weighing 15 to 25 g were employed, and they were designated as follows: (1) Control Group, in which no arachidonic acid or test compound was to be applied, (2) Arachidonic Acid-Treated Group, in which no test compound was to be applied, and (3) Treated Group, in which the test compound was to be applied first, followed by the application of arachidonic acid. In the case of the Group (3) animals, the test compound, dissolved in acetone, was applied to the dorsal surface of the right ear of the mouse with a 25-microliter pipettor, with the dose of the test compound being varied. After 0.5 hours in some cases and 4 hours in others, the arachidonic acid was topically applied in the same manner as above to the pretreated ear areas. In each case of arachidonic acid application, an amount of 0.5 mg dissolved in 25 microliters of acetone was used. After 1 hour, the mice were sacrificed by carbon dioxide inhalation. A 6 mm-diameter standard biopsy punch was used to obtain a uniform tissue sample from the ear of each mouse so treated, and the tissue samples were weighed to the nearest 0.1 mg. The percent inhibition of ear edema formation was calculated as follows: [formula]

In assay [3] the target is T1, Δ^5 -lipoxygenase from rat basophilic leukemia (RBL-1) cells (Rattus norvegicus, UniProt P12527).
T1 construct: The isolated cytosolic fraction was stored in liquid N2 for up to 8 weeks without loss of 5-LO enzyme activity; endogenous in cells; host or cells: RBL-1 cells (ATCC CRL 1378), 113,000×g supernatant (cytosol)
T1 sequence (P12527 1-673): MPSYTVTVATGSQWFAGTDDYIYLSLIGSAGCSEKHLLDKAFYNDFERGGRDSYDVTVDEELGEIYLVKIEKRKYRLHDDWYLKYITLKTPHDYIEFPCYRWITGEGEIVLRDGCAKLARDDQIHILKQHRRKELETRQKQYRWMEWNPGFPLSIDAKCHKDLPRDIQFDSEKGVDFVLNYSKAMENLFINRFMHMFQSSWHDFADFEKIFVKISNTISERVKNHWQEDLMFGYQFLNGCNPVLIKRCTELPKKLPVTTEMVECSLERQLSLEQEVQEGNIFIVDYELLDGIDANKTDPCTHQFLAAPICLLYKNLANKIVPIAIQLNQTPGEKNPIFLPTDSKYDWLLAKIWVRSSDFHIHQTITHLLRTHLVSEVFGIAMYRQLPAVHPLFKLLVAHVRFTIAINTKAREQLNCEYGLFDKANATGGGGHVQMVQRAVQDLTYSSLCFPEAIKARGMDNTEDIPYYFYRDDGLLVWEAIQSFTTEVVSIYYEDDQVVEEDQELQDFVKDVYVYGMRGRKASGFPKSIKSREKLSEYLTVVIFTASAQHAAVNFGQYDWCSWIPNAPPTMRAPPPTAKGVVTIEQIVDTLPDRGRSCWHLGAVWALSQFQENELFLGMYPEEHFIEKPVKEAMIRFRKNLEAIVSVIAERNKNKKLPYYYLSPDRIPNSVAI
The assay is described as follows: In vitro test for Δ^5-lipoxygenase inhibitors (5-HETE radioimmunoassay). It counts as biochemical. The following applies: for pIC50: RBL-1 5-LO, 5-HETE formation, read-out: Inhib. of Δ^5 Lipoxygenase IC50. How it is done: RBL-1 cells (CRL 1378) were obtained from the American Type Culture Collection, Rockville, MD. DMEM and glutamine were purchased from Flow Labs, McLean, Va. FBS (Gibco, Grand Island, N.Y.) was heat-inactivated for 1 hour at 56° C. Reagents for protein determinations were obtained from Biorad, Rockville Center, N.Y. Arachidonic acid (approx. 99%), ATP (disodium salt), BHT, dextran (clinical grade), tetrasodium EDTA, gelatin, gentamycin sulfate solution, reduced glutathione, 1 M HEPES buffer, indomethacin, NaCl, reduced NADPH, Trizma 7.2, and Trizma 8.5 were purchased from Sigma Chemical, St. Louis, Mo. CaCL2 dihydrate, Norit A charcoal, and citric acid monohydrate were obtained from Fisher Scientific, Pittsburgh, Pa. […] A synthetic 5-HETE standard was supplied by Dr. M. Rosenberger, Dept. of Medicinal Chemistry, Hoffmann La-Roche, Nutley, N.J.; [see Corey, E. J., and Hashimoto, S. (1981) Tet. […] Approximately 7-9 days after thawing, RBL-1 cells growing in log phase were seeded at a density of 7500 viable cells/ml in a closed 89-liter spinner flask. […] RBL-1 cells were harvested by centrifugation at 4° C. at 1500×g for 10 minutes and were washed 3 times with ice cold 0.05M tris-hCl, pH 7.2, tetrasodium EDTA (buffer 1). The cells were washed last in 0.05M Tris-HCl containing 14 μM indomethacin, 1 mM glutathione, 1.5 mM NaCl, and 1 mM tetrasodium EDTA (buffer 2), resuspended at a density of 5×108'/ml approximately 10 ml) and disrupted manually at 4° C. using a 40 ml Dounce (type A pestle) homogenizer. After 5 minutes of homogenization, 95% cell lysis was confirmed by phase contrast microscopy. The broken cells were diluted 1:2 with buffer 2 and centrifuged at 12,380×g for 10 minutes at 4° C. to pellet cellular debris and granules. The 12,380×g supernatant was centrifuged at 113,000×g for 60 minutes to pellet microsomes. The high-speed supernatant (5.9±0.48 mg/ml protein) was frozen immediately in 1 ml aliquots using a dry ice/acetone bath. The isolated cytosolic fraction was stored in liquid N2 for up to 8 weeks without loss of 5-LO enzyme activity. Compounds were dissolved at 25 mM concentration in DMSO, then diluted to final concentrations using 95% ethanol. For a typical enzyme assay, the partially purified 5-LO preparation was preincubated with drug or vehicle for 10 minutes at 30° C. The assay tubes were then transferred at a 37° C. water bath where they received arachidonic acid (8.25 μM final concentration) to initiate 5-LO activity. […] The samples were immediately cooled on ice and neutralized by dilution with 0.05M Tris-HCl, pH 8.5, which contained 25 mg/1 BHT. A boiled cytosol control was placed at the end of each assay to emasure non-enzymatic oxidation of arachidonic acid. […] Under the assay conditions described, the 5-LO catalyzed the conversion of arachidonic acid to 5-HPETE which, as a consequence of peroxidase activity, was reduced to 5-HETE. A specific radioimmunoassay was employed to quantitate the amount (pmoles) of 5-HETE formed during the enzyme reaction. To prepare the immunogen, Dr. M. Rosenberger (Dept. of Medicinal Chemistry) converted the racemic 5-HETE lactone (Corey, E. J., and Hashimoto, S. (1981) Tet. Letters, 22, 299-302) to its hydrazine derivative. The hydrazide was conjugated to thiolated Keyhole Limpet Hemocyanin (Young, […]., and Rokach, J. (1982) Prostaglandins 23, 603-613) using N-ethyl-maleimide as previously described for LTB4 by (Young, R., N, Zomboni, R. and Rokach, J. 91983) Prostaglandins, 26, 605-613). New Zealand White rabbits received multiple intradermal injections on their backs with […] conjugate emulsified in complete Freund's adjuvant. A schedule of injections reported by Salmon (Salmon, J. A. (1978) Prostaglandins, 15, 383-397) was followed. After the monthly i.p. booster injections, blood was obtained from the marginal ear vein 5-7 days later and assessed for antibody titer. […]

Take `CCCc1c(OCCCCCCCCc2cccc(O)c2O)ccc(C(C)=O)c1O` [1-[2-hydroxy-4-[8-(2,3-dihydroxyphenyl)octyloxy]-3-propylphenyl]ethanone]: the inhibition in vivo at 100 mg/kg in assay [1] amounted to 0%. Further, the inhibition in vivo at 1 mg in assay [2] stood at 0%. Besides, the inhibition at 0.1 µM in assay [3] (read-out: Inhib. of Δ^5 Lipoxygenase, % inhibition at 0.1 μM) was 95%.
On to `CCCc1c(OCCCCCCc2cccc(O)c2O)ccc(C(=O)OCCN(CC)CC)c1O` [4-[6-(2,3-Dihydroxyphenyl)hexyloxy]-2-hydroxy-3-propylbenzoic acid [2-(diethylamino)ethyl]ester hydrochloride], for which the inhibition in vivo at 100 mg/kg in assay [1] was 42%. The same compound displayed an inhibition in vivo at 1 mg in assay [2] of 48%. For the same compound, the pIC50 in assay [3] is 6.17.
As to `CCCc1cc(C(=O)O)cc(CCC)c1OCCCCCCc1cccc(O)c1O` [4-[6-(2,3-Dihydroxyphenyl)hexyloxy]-3,5-dipropylbenzoic acid], the inhibition in vivo at 1 mg in assay [2] was 59%. Besides, the pIC50 in assay [3] was 6.34.
Turning to `CCCc1cc(C(=O)O)ccc1OCCCCCCc1cccc(O)c1O` [4-[6-(2,3-Dihydroxyphenyl)hexyloxy]-3-propylbenzoic acid], in assay [1], the inhibition in vivo at 100 mg/kg is 0%. Also, the inhibition in vivo at 1 mg in assay [2] was 52%. Also, the pIC50 in assay [3] is 7.70.
